The experiment relates to PANC2.03 subcutaneous tumors. The experiment is described as follows: Drug sensitization assay, PANC2.03 subcutaneous tumors in nude mice. In kind it is in vivo. Here is the method: FIG. 5. […] (B) 50,000 cells of PANC2.03 were subcutaneously injected into nude mice for the tumor initiation assay. The anti-LIF AB (clone D25.1.4) was given before the tumor inoculation at 10 mg/kg. The treatment was given three times a week. […] (C) In drug sensitization assay, 0.2×10^6 cells of PANC2.03 cells were first subcutaneously injected into nude mice. […] The mice were randomly separated into 4 different groups: control, Ab only, gemcitabine only, and combination. […] (D) Tumor volume changing curve in the PANC2.03 subcutaneous tumors with the treatment model of (C). […] Tumor proliferation rate=(Tumor vol on the later day−Tumor vol on the initial day)/Tumor vol on the initial day*100. […] The response to gemcitabine was analyzed in pancreatic cancer cells. […] The effects of LIF-neutralizing antibody were also tested in mouse models. […] In a drug sensitization assay, PANC2.03 cells were subcutaneously injected into nude mice to form tumors, then the mice were treated with anti-LIF antibody, gemcitabine, or a combination of anti-LIF antibody and gemcitabine.

With `Nc1ccn([C@@H]2O[C@H](CO)[C@@H](O)C2(F)F)c(=O)n1` [gemcitabine], the “complete regressions of tumors” value (0.2×10^6 PANC2.03 cells s.c., tumors formed within 14 days post-inoculation, then treatment, FIG. 5C) was “did not lead to the tumor regressions”. Besides, for the setting “(Tumor vol on the later day−Tumor vol on the initial day)/Tumor vol on the initial day*100, FIG. 5E”, the tumor proliferation rate entry is listed as “still had a positive growth rate”. Further, where the note is “FIG. 5F”, the “fold change on tumor volumes” value is “still had a positive growth rate”.

The record behind these values is patent US20170247446A1, “TARGETING K-RAS-MEDIATED SIGNALING PATHWAYS AND MALIGNANCY BY ANTI-hLIF ANTIBODIES” (The Regents of the University of California, priority 2014, published 2017).
